Test results taken from patent US6503945B2, “Cationic amphiphiles containing N-hydroxyalkyl group for intracellular delivery of biologically active molecules” (Council of Scientific & Industrial Research, priority 1909, dated 2003).

System: COS-1 cells
Assay: Cell transfection assay (β-galactosidase reporter gene activity)
Format: cell-based, African green monkey
Details: compared to Lipofectamine
Description: Separate 1 mole (80 l of a 0.0126 M stock solution in chloroform) of N,N-di-n-hexadecyl-N,N-dihydroxyethylammonium bromide (DHDEAB) and 1 mole of the neutral colipid cholesterol (40 l of a 0.0255 M stock solution in chloroform) were combined in a glass vial. The solvent was evaporated initially by a thin flow of moisture free nitrogen and then under high flow for two minutes and then further dried under vacuum (1 mm Hg) for 6 hours.
The dried lipid film was then hydrated with sterile deionized water (1 ml) overnight (9-10 hours) in room temperature to produce a dispersed suspension. The hydrated mixture was then vortexed for 1 minute and was sonicated in a probe sonicator at a constant 25 W sonic power for 5 minutes. The concentrations of both DHDEAB and cholesterol in the resulting solution obtained after sonication was 1 mM. […]
For protein estimation, the resultant medium was removed from the plates and the cells were washed with PBS- Lysis buffer (1001 containing 250 mM Tris.HCl, pH 8.0, 0.5% NP40) was added and the cells were lysed for 30 minutes. […] The plates were read in an Elisa reader (Molecular Devices, Vmax) with a 650 nm filter. […]
The level of galactosidase activity in a 501 lysate was measured by adding to 501 of 2× gal mixture containing 1.33 mg/ml o-nitrophenyl--D-galactopyranoside (Sigma N1127), 200 mM sodium phosphate pH 7.15 and […]. […]

Molecule	in vitro transfection efficiencies
CCCCCCCCCCCCCCCC[N+](CCO)(CCO)CCCCCCCCCCCCCCCC [amphiphile No. 1, N,N-di-n-hexadecyl-N, N-dihydroxyethylammonium bromide]	enhanced
N,N,-di[O-hexadecanoyl]hydroxyethyl-N-hydroxyethyl-N-methylammonium bromide [amphiphile No. 5]	enhanced
